In PMC5272823 (Peptides, 2016):
Ends that are not written are not given here.

Legend:
[1] = ref [10]; cited from earlier work
[2] = type: in vivo, Female C57BL/6J mice; conditions: glucose 0.35 g/kg i.v. alone; plasma ELISA; n=15

For “GLP-1 (HAEGTFTSDVSSYLEGQAAKEFIAWLVKGR; ends and bridges not checked; UniProt P01275 98-127, looked up)”, the “Effect on insulin clearance” value [1] is listed as “diminish insulin clearance” and the “Effect on insulin secretion” value [1] is listed as “stimulate insulin secretion”.

For `OC[C@H]1OC(O)[C@H](O)[C@@H](O)[C@@H]1O` (stereo partly drawn) [glucose], the “Insulin peak concentration at 1 min” value [2] was 0.9 ± 0.2 nmol/L.
